Results from paper PMC3551756, “HIV-1 Fusion Is Blocked through Binding of GB Virus C E2D Peptides to the HIV-1 gp41 Disulfide Loop” (PLoS ONE, 2013).

Legend:
[1] = tested on: HIV-1 Env (NL4-3 gp160, X4env) on 293T cells; assay: HIV-1 gp160 (X4env) binding of FITC-labeled E2 peptides, flow cytometry; details: FITC-labeled peptides 1 µM; for binding to HIV-1 Env-expressing cells: sCD4 pretreated, 1 h 37°C, X4env- vs vector-transfected 293T cells, three independent experiments each in duplicate; for background attachment to mock- or vector-transfected cells: mock- or vector-transfected 293T cells
Description: 293T cells were transiently transfected with an HIV-1 Env expression vector, coding for the CXCR4-tropic NL4-3 gp160 precursor (X4env) for surface expression of gp120-gp41 Env trimers or empty plasmid as control. After 2 days of cultivation, cells were incubated with 1 µg sCD4 and 1 µM FITC-conjugated E2 peptides for 1 h at 37°C respectively. Subsequently, cells were washed, resuspended in PBS, and analyzed by flow cytometry using a BD™ LSR II flow cytometer (Becton Dickinson Biosciences, Germany). Flow cytometer data were collected with BD FACSDiva™ and analyzed with FCS Express V3. In parallel, gp160 expression was determined by staining with HIV-1 gp120 mAbs (2G12 and 17b) and an anti-human IgG-FITC pAb (Dako, Germany).
Previously, we have shown that the target of the HIV-1-inhibitory E2 peptides is most likely located on the HIV-1 particle, rather than on the cell. The surface of the HIV-1 particle consists of a lipid bilayer with incorporated host cell proteins and a limited number of functional envelope (Env) trimers (on average 14±7). Therefore, we tested whether the HIV-1-inhibitory E2 peptides interact with trimeric HIV-1 Env proteins expressed on the surface of transfected cells. For this purpose, 293T cells were transiently transfected with an HIV-1 Env expression vector, coding for the gp160 precursor of the CXCR4-tropic NL4-3 envelope (X4env). Binding of FITC-labeled E2 peptides was monitored by flow cytometry.
Figure 4 Recombinant E2_340-Fc protein and E2-derived peptides bind HIV-1 gp41. (A) 293T cells expressing NL4-3 envelope (X4env) or empty plasmid as control were incubated with sCD4 and FITC-conjugated E2 peptides, respectively. Peptide binding was analyzed by flow cytometry. Percentages illustrate the increase of cell binding to X4env-transfected cells. The increase is normalized to the background binding of E2 peptides to mock-transfected cells by calculating the RTCN value. […] (C) E2 peptides with increasing amounts were added to recombinant E2_340-Fc protein (at constant concentration) and then transferred to immobilized recombinant gp41MN.

[2] = tested on: gp41MN; assay: Competitive ELISA, E2 peptides versus gp41 mAbs on immobilized gp41MN; format: binding, HIV-1; details: increasing peptide, three independent experiments each in duplicate; for inhibition of F240 binding to gp41: mAb F240 (disulfide loop); for inhibition of F240 binding to gp41 / inhibition of T32 binding to gp41: immobilized gp41MN; for inhibition of T32 binding to gp41: mAb T32 (disulfide loop); for inhibition of gp41 binding of 246-D, D50, 5F3, 2F5, 4E10 and Chessie 8: mAbs other than F240 and T32, immobilized gp41MN
Description: Flat-bottom, 96-well Microtest ELISA plates (Sarstedt, Germany) were coated overnight at 4°C with recombinant HIV-1 gp120 (0.5 µg/ml), gp41 (0.22 µg/ml) proteins, or with streptavidin (4 µg/ml) in coating buffer (0.1 M NaHCO3, 0.1 M Na2CO3, pH 9.87). Nonspecific binding was blocked (blocking buffer: 1% BSA, 0.1% Tween-20 in phosphate buffer, pH 7.2) for 1 h at room temperature, followed by washing steps (wash buffer: 0.1% Tween in phosphate buffer, pH 7.2). Streptavidin-coated plates were then incubated with gp41 disulfide loop peptides (Loop36ox or Loop36s; 2.5 µM). All plates were then incubated with recombinant E2_340-Fc or Fc protein in serial dilutions in sample buffer (phosphate buffer, pH 7.2) for 3 hr at room temperature. To perform the competitive ELISAs, the recombinant E2_340-Fc protein was adjusted at 5 µg/ml and the monoclonal gp41 antibodies (246-D, F240, T32, D50, 2F5, 4E10, Chessie 8 [all: NIH AIDS Research and Reference Reagent Program], and 5F3 [Polymun, Austria]) at […]. After washing procedure, the plates were incubated for 1 h with polyclonal rabbit anti-human IgG peroxidase antibody (Dako, Germany) 1∶6000 in sample buffer and washed. Plates were developed with TMB peroxidase substrate solution (KPL, USA), or with OPD/H2O2 solution in the dark. Absorbances (ODs) were read at 450 or 492 nm, respectively, using a multi-channel photometer (ELISA-Reader AxSYM, Abbott Laboratory, USA).
(A) Illustration of gp41 variants (strains IIIB, MN) and peptides (N36, C34) used in ELISA as well as the binding epitopes of different monoclonal gp41 antibodies. Gp41 consists of the N-terminal fusion peptide (FP), the N- and C-heptad repeats (NHR, CHR) that are connected by the disulfide loop region (C-C loop), the membrane proximal external region (MPER), the α-helical transmembrane-spanning domain (TM), and the cytoplasmic tail (CP). […] Each sample was tested in triplicate. […] (C) Competitive binding of E2 peptides and different gp41 targeting mAbs to immobilized recombinant gp41MN. Simultaneously to mAb incubation E2 peptides were added with increasing amounts. […] The graphs show average values of three independent experiments each performed in duplicate.
Finally, we performed a direct binding assay with biotin-tagged 36mer gp41 disulfide loop peptides (residues from 588 to 623 according to HIV gp160HxB2) and GBV-C E2_340-Fc. We immobilized via streptavidin an oxidized (closed loop) or a linear variant of the disulfide loop, in which the cysteine residues were replaced with serine (Table S1) onto plates and the binding of graded concentrations of GBV-C E2_340-Fc was monitored with HRP-anti-human antibodies.

Compound | binding to HIV-1 Env-expressing cells [1] | background attachment to mock- or vector-transfected cells [1] | inhibition of F240 binding to gp41 [2] | inhibition of T32 binding to gp41 [2] | inhibition of gp41 binding of 246-D, D50, 5F3, 2F5, 4E10 and Chessie 8 [2]
CC(=O)N[C@@H](CC(C)C)C(=O)N[C@@H](CS)C(=O)N[C@@H](CC(=O)O)C(=O)N[C@@H](CS)C(=O)N1CCC[C@H]1C(=O)N[C@@H](CC(N)=O)C(=O)NCC(=O)N1CCC[C@H]1C(=O)N[C@@H](Cc1c[nH]c2ccccc12)C(=O)N[C@H](C(=O)N[C@@H](Cc1c[nH]c2ccccc12)C(=O)N[C@H](C(=O)N1CCC[C@H]1C(=O)N[C@@H](C)C(=O)N[C@@H](Cc1ccccc1)C(=O)N[C@@H](CS)C(=O)N[C@@H](CCC(N)=O)C(=O)N[C@@H](C)C(=O)N[C@H](C(=O)NCC(=O)O)C(C)C)C(C)C)C(C)C [P6-2] | significant increase in the binding | background attachment | inhibited in a dose-dependent manner | inhibited in a dose-dependent manner | Of the eight antibodies, only the gp41 interaction of F240 and T32 was inhibited
Ac-WDRGNVTLLCDCPNGPWVWV [P4-7, 20 mer peptide presenting amino acids 37 to 56 of the GBV-C E2 protein] | significant increase in the binding | background attachment | inhibited in a dose-dependent manner | inhibited in a dose-dependent manner | Of the eight antibodies, only the gp41 interaction of F240 and T32 was inhibited
